Consider one compound from patent US8481789B2, “Method for producing natural 9-decen-2-one by bioconverting undecylenic acid using a mold, and use in the perfume and food flavoring fields” (priority 2008, dated 2013).

Data set [1] can be described thus: LD50 test (acute oral toxicity). The conditions noted are these: in vivo.
Data set [2] deals with rabbits. The data set can be described thus: Acute dermal irritation (OECD guideline No. 404, method B.4). It is filed as in vivo, rabbit. The conditions noted are these: 3 rabbits. Here is the method: The molecule was tested on 3 rabbits according to the experimental protocol established by “the OECD guideline No. 404 dated Apr. 24, 2002” and the test “method B.4 of the Directive No. 2004/73/EC): Acute dermal irritation”.
It emerges therefrom that 9-decen-2-one is not irritant and that no hazard symbol or phrases are required for its use (according to the “EEC Directives 67/548/59 and 99/45”).

For data set [3], the system named is rabbits. Kind of data set: Acute eye irritation (OECD guideline No. 405, method B.5). The data set is classed as in vivo, rabbit. The conditions noted are these: 3 rabbits. As to the method:
Similarly, the molecule was tested on 3 rabbits according to the experimental protocol established by “the OECD guideline No. 405 dated Apr. 24, 2002” and the test “method B.5 of the Directive No. 2004/73/EC): Acute eye irritation”.
It also emerges therefrom that 9-decen-2-one is not irritant and that no hazard symbol or phrases are required for its use (according to the “EEC Directives 67/548/59 and 99/45”).

Usually LD50 stands for the dose at which mortality reaches 50%. Low readings indicate a more toxic substance, high ones a less toxic substance. Consider `C=CCCCCCCC(C)=O` [9-decen-2-one], for which the LD50 in data set [1] was found to be 2500 mg/kg. In addition, the Acute dermal irritation result in the data set with rabbits [2] was “not irritant”. The Acute eye irritation entry in the data set with rabbits [3] is on record as “not irritant”.
